{
  "source": "patent US9867798B2",
  "about": "“Ladostigil therapy for immunomodulation” (priority 2012, dated 2018)",
  "key": {"MAO-A": {"target": "T1, MAO-A (Rattus norvegicus, UniProt P21396)", "T1 construct": "from tissue; host or cells: heart of aged Wistar rats after chronic oral dosing", "T1 sequence (P21396 1-526)": "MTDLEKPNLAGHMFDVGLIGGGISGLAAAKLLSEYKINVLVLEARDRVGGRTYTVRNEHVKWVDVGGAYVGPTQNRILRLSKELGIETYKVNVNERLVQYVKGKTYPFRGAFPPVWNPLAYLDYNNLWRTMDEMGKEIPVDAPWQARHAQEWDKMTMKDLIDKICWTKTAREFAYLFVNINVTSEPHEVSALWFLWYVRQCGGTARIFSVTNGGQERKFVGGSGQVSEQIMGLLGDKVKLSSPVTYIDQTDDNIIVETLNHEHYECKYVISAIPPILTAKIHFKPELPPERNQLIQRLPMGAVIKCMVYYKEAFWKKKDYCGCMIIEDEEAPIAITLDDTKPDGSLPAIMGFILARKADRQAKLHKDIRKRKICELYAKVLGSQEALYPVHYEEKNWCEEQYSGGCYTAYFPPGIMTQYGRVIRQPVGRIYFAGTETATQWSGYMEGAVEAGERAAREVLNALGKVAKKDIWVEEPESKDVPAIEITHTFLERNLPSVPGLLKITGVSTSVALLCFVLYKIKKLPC", "assay": "MAO-A activity in heart of treated rats", "assay_type": "in vivo", "details": "read-out: MAO-A activity in the heart inhibited"}, "ChE": {"test_system": "ChE", "assay": "Cholinesterase activity in spleen and plasma of mice (Example 4)", "assay_type": "in vivo, Balb-C mice", "details": "10 mg/kg oral, two hours, ± SD, not significant", "description": "Ladostigil 10 mg/kg or saline 1 mg/kg were given by gavage to groups of 6 Balb-C male mice weighing 24-30 gm. The mice were sacrificed 120 min later when ChE inhibition reaches its peak. The spleen was rapidly removed and weighed and blood was centrifuged at 14000 rpm at room temperature for 4 min to provide plasma. Phosphate buffer was added to the spleen at a ratio of 1 mg/ml and the tissue was homogenized at a speed of 24,000 rpm in cold phosphate buffer pH=7 containing 0.1% Triton and centrifuged at 14000 rpm. Aliquots of plasma and the supernatant from the spleen were incubated with acetylthiocholine and dinitro benzoic acid in phosphate buffer pH 7 and the rate of development of the yellow color was measured as described by Ellman et al, (1961). Percent inhibition of ChE activity was calculated by comparison with that of control mice given with saline. Protein concentration was determined by means of Bradford reagent (Bio-RAD, 500-0006) and results represented as activity/mg protein."}, "[1]": {"test_system": "LPS-induced TNF-α, IL-1β and IL-6 in spleen", "assay": "Cytokines in spleen of mice injected with LPS, comparison to rivastigmine (Example 5)", "assay_type": "in vivo, Balb/c mice", "details": "for IL-1β in spleen / IL-6 in spleen / TNF-α in spleen: four hours", "description": "Male Balb/c mice (aged 8-9 weeks, weighing 25-30 gm) were given ladostigil (10 or 20 mg/kg) or rivastigmine (0.5 or 1 mg/kg) by gavage, or water (1 ml/100 g), followed 15 min later by an intra-peritoneal injection of LPS (10 mg/kg). Control mice were given LPS and water by gavage (1 ml/100 g). For measurement of cytokine levels in the spleen and blood the mice were sacrificed 4 h after drug administration, blood collected in heparinized tubes and centrifuged to obtain plasma and the spleen was rapidly removed and weighed. Plasma and spleen were frozen in liquid nitrogen and stored at −80° C. until use. For measurement of cytokine levels, the tissue was diluted in PBS containing 0.8% NaCl, 0.144% NaHPO4, 0.024% KH2PO4 and protease inhibitor cocktail (Sigma Israel, P8340) and homogenized in an Ultra-TURRAX® homogenizer at a speed of 24,000 rpm, centrifuged at 14000 g for 15 min at 4° C. Cytokines were detected in the supernatant by using ELISA kits for cytokines IL-1β, IL-6, and TNF-α (Biolegend) following the manufacturer's protocol. Each experiment was performed twice with 8 replicate measures in each experiment. Protein concentration in each sample was determined with Bradford reagent (Bio-RAD, 500-0006)."}, "[2]": {"test_system": "rat heart ischemia/reperfusion", "assay": "Myocardial ischemic preconditioning, isolated Langendorff hearts of chronically treated rats", "assay_type": "in vivo, Wistar rats", "set-up": "DP: unit not given beside the values", "details": "for DP / HR / WI: old rats; for WI: percent of value at end of stabilization", "description": "Four groups of male rats of the Wistar strain were used for these studies; a) 3-months old untreated; b) 22 months old, untreated; c) 22 months old treated from the age of 16 months by daily oral administration of ladostigil hemitartrate at a dose of 1 mg/kg/day (hereinafter “low dose”; d) 22 months old treated from the age of 16 months by daily oral administration of ladostigil hemitartrate at a dose of 8.5 mg/kg/day (hereinafter “high dose”).\nOn the day of the experiment, rats were injected with i.p. sodium heparin (500 units/kg) followed 30 min later by 80 mg/kg ketamine plus 5 mg/kg xylazine i.p. Bilateral thoracotomy was performed and hearts with a segment of the ascending aorta were rapidly excised, put in ice-cold heparinized saline and mounted onto the Langendorff apparatus. They were perfused with a modified Krebs-Henseleit (KH) buffer as described in Chevion et al. (1993). Heart rate (HR), developed pressure (DP), and its derivatives (+dp/dt and −dp/dt) were recorded. All primary data were processed using a customized version of LabView 7.1 software (National Instruments, Austin, Tex., USA). Work index (WI=Heart Rate×DP) was used as an indicator of heart contractility. The degree of cardio-protection was expressed by the percent (ratio) of two values: WI at the completion of the experiment (at the 120th min) and WI at the completion of the stabilization phase (at the 10th min).\nExperimental protocol: Three basic experimental protocols were employed: (i) continuous (un-interrupted) perfusion: (ii) stabilization (25 min) followed by ischemia and reperfusion (35/60 min) (I/R), and (iii) stabilization (10 min) followed by IPC, ischemia and reperfusion (IPC+I/R). The hemodynamic parameters of the heart were monitored and recorded continuously throughout, during all experimental protocols. Under the I/R protocol, the stabilization phase was extended from 10 to 25 min to compensate for the 15 min of the IPC procedure, which consisted of 3 cycles of (2 min ischemia and 3 min perfusion)."}, "[3]": {"details": "ladostigil 10 mg/kg + LPS 10 mg/kg"}, "[4]": {"details": "ladostigil 20 mg/kg + LPS 10 mg/kg"}, "[5]": {"details": "IPC + I/R, high dose 8.5 mg/kg/day"}, "[6]": {"details": "IPC + I/R, low dose 1 mg/kg/day"}},
  "data": [
    {"smiles": "C#CCN[C@@H]1CCc2ccc(OC(=O)N(C)CC)cc21", "note": "[Ladostigil, R(+)-6-(N-methyl, N-ethyl-carbamoyloxy)-N′-propargyl-1-aminoindan]", "values": [
      {"measurement": "inhibition at 8.5 mg/kg/day", "setting": "MAO-A", "value": "50 to 60", "unit": "%"},
      {"measurement": "Inhibition of ChE in plasma", "setting": "ChE", "value": "5.7±2.1", "unit": "%"},
      {"measurement": "Inhibition of ChE in spleen", "setting": "ChE", "value": "7.8±6.4", "unit": "%"},
      {"measurement": "Reduction of IL-1β levels in spleen", "setting": "[1]; ladostigil 10 mg/kg + LPS", "value": "31.1±4.3", "unit": "%"},
      {"measurement": "Reduction of IL-6 levels in spleen", "setting": "[1]; ladostigil 10 mg/kg + LPS", "value": "50.0±7.2", "unit": "%"},
      {"measurement": "Reduction of TNF-α levels in spleen", "setting": "[1]; ladostigil 10 mg/kg + LPS", "value": "49.7±7.6", "unit": "%"},
      {"measurement": "IL-1β in spleen", "setting": "[1]; [3]", "value": "401 ± 40", "unit": "pg/mg"},
      {"measurement": "IL-6 in spleen", "setting": "[1]; [3]", "value": "351 ± 50", "unit": "pg/mg"},
      {"measurement": "TNF-α in spleen", "setting": "[1]; [3]", "value": "9.6 ± 1.5", "unit": "pg/mg"},
      {"measurement": "Effect on TNF-α or IL-1β levels in spleen", "setting": "[1]; ladostigil 20 mg/kg + LPS", "value": "had no effect"},
      {"measurement": "Reduction of IL-6 levels in spleen", "setting": "[1]; ladostigil 20 mg/kg + LPS", "value": "42.7±8.3", "unit": "%"},
      {"measurement": "IL-1β in spleen", "setting": "[1]; [4]", "value": "591 ± 17", "unit": "pg/mg"},
      {"measurement": "IL-6 in spleen", "setting": "[1]; [4]", "value": "454 ± 59", "unit": "pg/mg"},
      {"measurement": "TNF-α in spleen", "setting": "[1]; [4]", "value": "17.1 ± 1.9", "unit": "pg/mg"},
      {"measurement": "Effect on WI after ischemia and 60 min reperfusion", "setting": "[2]; aging rats, I/R without IPC, either dose", "value": "no significant effect"},
      {"measurement": "DP", "setting": "[2]; I/R, high dose 8.5 mg/kg/day", "value": "14 ± 6"},
      {"measurement": "HR", "setting": "[2]; I/R, high dose 8.5 mg/kg/day", "value": "83 ± 8"},
      {"measurement": "WI", "setting": "[2]; I/R, high dose 8.5 mg/kg/day", "value": "12 ± 5", "unit": "%"},
      {"measurement": "DP", "setting": "[2]; I/R, low dose 1 mg/kg/day", "value": "20 ± 10"},
      {"measurement": "HR", "setting": "[2]; I/R, low dose 1 mg/kg/day", "value": "67 ± 15"},
      {"measurement": "WI", "setting": "[2]; I/R, low dose 1 mg/kg/day", "value": "13 ± 6", "unit": "%"},
      {"measurement": "DP", "setting": "[2]; [5]", "value": "30 ± 12"},
      {"measurement": "HR", "setting": "[2]; [5]", "value": "92 ± 28"},
      {"measurement": "WI", "setting": "[2]; IPC + I/R, high dose 8.5 mg/kg/day, 8.5 mg/kg/day", "value": "26 ± 6", "unit": "%"},
      {"measurement": "WI", "setting": "[2]; IPC + I/R, high dose 8.5 mg/kg/day, listed as ladostigil, 8.5 mg/kg/day", "value": "much smaller"},
      {"measurement": "DP", "setting": "[2]; [6]", "value": "68 ± 15"},
      {"measurement": "HR", "setting": "[2]; [6]", "value": "77 ± 8"},
      {"measurement": "WI", "setting": "[2]; IPC + I/R, low dose 1 mg/kg/day, 1 mg/kg/day", "value": "53 ± 12", "unit": "%"},
      {"measurement": "WI", "setting": "[2]; IPC + I/R, low dose 1 mg/kg/day, listed as ladostigil, 1 mg/kg/day", "value": "> 50", "unit": "%"}
    ]}
  ]
}
